Data published in paper PMC10906223 (JCI Insight, 2024).
Where “and” joins values, the source holds several entries; their conditions need not be identical. Equal values may be shown once.

What was measured:
Format in all cases: cell-based
[1] = tested on: primary mouse hepatocytes; assay: Glucose output from primary mouse hepatocytes
Description: Primary hepatocyte culture was performed following previous publications ([63], [64]). Briefly, livers were extracted from C57BL/6J (n = 5), rinsed in HBSS, and minced. The minced tissue was treated with collagenase P solution (9 μg/mL) neutralized by DMEM containing 10% FBS. Following settling of undigested tissue, the supernatant was collected and centrifuged at 490g for 1 minute. The pellet was treated with red blood cell lysis buffer (8.26 g NH4Cl, 1 g NaHCO3, 0.037 g Na2EDTA in 1,000 mL of distilled water) for 3 minutes, diluted with HBSS containing 6% FBS, and centrifuged at 490g for 1 minute. The resulting pellet was washed 2 times using HBSS containing 6% FBS (290g, 1 minute, and 190g, 1 minute) and resuspended in HBSS containing 2% FBS. The procedure was repeated 2 additional times on the undigested tissue. The collected suspension was sequentially filtered through a 500 μm Steel Basket-Strainer (pluriSelect) and Falcon 100 µm Cell Strainer (Corning). After centrifugation (190g, 1 minute), the pellet was resuspended in DMEM (containing 10% FBS, 100 U/mL penicillin, and 100 μg/mL streptomycin), seeded in a 48-well cell culture plate (7.5 × 10^5 cells/ well), and incubated in a cell culture incubator, overnight. Cell viability and attachment were determined by trypan blue staining.

[2] = tested on: mouse dispersed islet cells; assay: Immunofluorescence: F-actin intensity in glucagon+ mouse dispersed islet cells;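 as to F-actin intensity: ImageJ intensity within ROI drawn around each glucagon+ cell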
Description: Coverslips were treated with WCDD301, preclustered Ephrin-A5 Fc, or preclustered Fc in the following sequential order: KRBH (11 mM glucose, 30 minutes), KRBH (1 mM glucose, 60 minutes), KRBH (1 mM glucose, 30 minutes), and KRBH (11 mM glucose, 60 minutes). After treatment, coverslips were washed once in PBS, fixed in 2% paraformaldehyde in PBS (30 minutes), and again washed in PBS. […] Following wash in PBS, coverslips were incubated in a mixture of Alexa Fluor 555 Phalloidin (Cell Signaling Technology, catalog 8953) and secondary antibodies (goat anti-rabbit Alexa Fluor 488, catalog A-21094, 1:1,000, Molecular Probes; and goat anti-mouse Alexa Fluor 633, catalog A21052, 1:1,000, Life Technologies) for 1 hour at RT. Both primary and secondary antibodies were diluted in blocking buffer containing 0.05% Tween 20. Coverslips were washed using PBS and counterstained by using DAPI (1:1,000) for 10 minutes. Following 2 washes in PBS, coverslips were mounted on glass slides using ProLong Glass Antifade Mountant (Invitrogen, catalog P36980). Images were captured using the Zeiss LSM880 microscope with a Plan-Apochromat 63× 1.4 NA objective lens by setting dual-band dichroic/filter for 405, 488, 561, and 633 nm laser excitation. For each slide, 25–30 fields of view were scanned, and in each field of view, 3–5 cells were imaged. […] Values of intensity were compared among groups using 1-way ANOVA, α = 0.05.

[3] = tested on: human donor dispersed islet cells; assay: Insulin secretion from healthy human donor dispersed islet cells; design: Insulin secretion: unit not given here
Description: Pancreata of nondiabetic C57BL/6J mice were digested using collagenase P (Roche Diagnostics, catalog 11213873001), and islets were manually picked up using a stereomicroscope (ZEISS Stemi 305). […] Isolated mouse islets or provided human islets were dispersed as described ([28]). Briefly, 100–120 islets were washed 2 times using modified HBSS, then dispersed in 600 μL Accutase (Innovative Cell Technologies, catalog AT-104) by gently pipetting up and down for 7 minutes at 37°C. […] Following refreshing of KRBH, cells were dispensed in 8 microfuge tubes (2,000 cells/tube) and treated with WCDD301, preclustered Ephrin-A5 Fc, or preclustered Fc in the presence or absence of the competitive inhibitor of EphA4 receptor, rhyncophylline ([60]) (MilliporeSigma, catalog SML2345). In the presence or absence of these effectors, secretion assay was performed sequentially as shown in Supplemental Table 5. […] Preclustering of Ephrin-A5 Fc was done by mixing Ephrin-A5 Fc or Fc alone (BioLegend, catalog 790102) with anti-Fc antibody (Invitrogen, catalog A16086) (1:10 molar ratio) 20 minutes before treatment ([62]). […] Shedding of cleaved EphA4 was measured from the cell culture medium. Experiments were performed by dispersion of 200 islets, and EphA4 levels in media were measured by EphA4 ELISA (ABclonal, catalog RK06572).
The Integrated Islet Distribution Program provided us human donor islets with their characteristics (Supplemental Table 6). Islets were centrifuged at 500g for 3 minutes, resuspended in CMRL 1066 medium (Gibco, catalog 1150-037) containing 11 mM glucose, and rested in an incubator overnight.
For the hormone secretion assay, islets or dispersed islet cells were adapted in KRBH buffer containing 11 mM glucose for 1 hour. Then, after 2 washes in HBSS containing 11 mM glucose, islets or cells were treated in the following sequential order in the presence or absence of WCDD301: incubation in KRBH (1 mM glucose, 30 minutes) followed by medium collection, incubation in KRBH (11 mM glucose, 30 minutes) followed by medium collection.

[4] = Glucose (1 mM), WCDD301 0.75 µM
[5] = Glucose (11 mM), WCDD301 0.75 µM
[6] = Glucose (11 mM), WCDD301 1.5 µM

CC(=O)OCC(N)(COC(C)=O)COC(C)=O [WCDD301, 2-(acetoxymethyl)-2-aminopropane-1,3-diyl diacetate]
Glucagon-stimulated glucose output ([1]; 100 nM glucagon, 3 μM WCDD301): did not alter glucagon-stimulated glucose output | Glucose output from hepatocytes (Figure 6G) ([1]; WCDD301 +, Glucagon +): 15.2 and 14.9 and 17.2 and 21 | Effect on intracellular F-actin ([2]; dispersed mouse islet cells): increased intracellular F-actin intensity | F-actin intensity ([2]; mouse cells, individual values, Figure 3F): 7.9 and 8.3 and 9.3 and 13.4 and 7.5 and 18.4 and 8.1 and 17.0 | Effect on insulin secretion ([3]; 1, 3 or 6 hours exposure): transient effect | Insulin secretion ([3]; 1 hour exposure, WCDD301 0.75 µM, 1 mM (first group), Figure 2D): 0.23 and 0.21 and 0.2 | Insulin secretion ([3]; 1 hour exposure, WCDD301 0.75 µM, head printed 1 mM (second group c4-c7), Figure 2D): 0.277 and 0.233 and 0.25 | Insulin secretion ([3]; 1 hour exposure, WCDD301 1.5 µM, 1 mM (first group), Figure 2D): 0.247 and 0.17 and 0.22 | Insulin secretion ([3]; 1 hour exposure, WCDD301 1.5 µM, head printed 1 mM (second group c4-c7), Figure 2D): 0.299 and 0.278 and 0.26 | Insulin secretion ([3]; 1 hour exposure, WCDD301 3 µM, 1 mM (first group), Figure 2D): 0.133 and 0.134 and 0.23 | Insulin secretion ([3]; 1 hour exposure, WCDD301 3 µM, head printed 1 mM (second group c4-c7), Figure 2D): 0.196 and 0.199 and 0.27 | Insulin secretion ([3]; 3 hours exposure, WCDD301 0.75 µM, 1 mM (first group), Figure 2E): 0.188 and 0.216 and 0.2 | Insulin secretion ([3]; 3 hours exposure, WCDD301 0.75 µM, head printed 1 mM (second group c4-c7), Figure 2E): 0.279 and 0.305 and 0.31 | Insulin secretion ([3]; 3 hours exposure, WCDD301 1.5 µM, 1 mM (first group), Figure 2E): 0.156 and 0.166 and 0.2 | Insulin secretion ([3]; 3 hours exposure, WCDD301 1.5 µM, head printed 1 mM (second group c4-c7), Figure 2E): 0.227 and 0.252 and 0.3 | Insulin secretion ([3]; 3 hours exposure, WCDD301 3 µM, 1 mM (first group), Figure 2E): 0.23 and 0.247 and 0.22 | Insulin secretion ([3]; 3 hours exposure, WCDD301 3 µM, head printed 1 mM (second group c4-c7), Figure 2E): 0.249 and 0.253 and 0.31 | Insulin secretion ([3]; 6 hours exposure, WCDD301 0.75 µM, 1 mM (first group), Figure 2F): 0.248 and 0.23 and 0.252 | Insulin secretion ([3]; 6 hours exposure, WCDD301 0.75 µM, head printed 1 mM (second group c4-c7), Figure 2F): 0.383 and 0.391 and 0.37 | Insulin secretion ([3]; 6 hours exposure, WCDD301 1.5 µM, 1 mM (first group), Figure 2F): 0.257 and 0.265 and 0.24 | Insulin secretion ([3]; 6 hours exposure, WCDD301 1.5 µM, head printed 1 mM (second group c4-c7), Figure 2F): 0.41 and 0.395 and 0.38 | Insulin secretion ([3]; 6 hours exposure, WCDD301 3 µM, 1 mM (first group), Figure 2F): 0.185 and 0.176 and 0.25 | Insulin secretion ([3]; 6 hours exposure, WCDD301 3 µM, head printed 1 mM (second group c4-c7), Figure 2F): 0.327 and 0.324 and 0.4 | Insulin secretion (Supplemental Figure 4A; quantity not given) [3, 4]: 14.24 and 14.812 and 14.5 | Insulin secretion (Supplemental Figure 4B; quantity not given) [3, 4]: 12.664 and 13.794 and 14 | Insulin secretion (Supplemental Figure 4C; quantity not given) [3, 4]: 11.67 and 7.26 and 14 | Insulin secretion (Supplemental Figure 4A; quantity not given) ([3]; Glucose (1 mM), WCDD301 1.5 µM): 17.532 and 20.466 and 12 | Insulin secretion (Supplemental Figure 4B; quantity not given) ([3]; Glucose (1 mM), WCDD301 1.5 µM): 15.67 and 15.802 and 13.5 | Insulin secretion (Supplemental Figure 4C; quantity not given) ([3]; Glucose (1 mM), WCDD301 1.5 µM): 13.328 and 14.218 and 10 | Insulin secretion (Supplemental Figure 4A; quantity not given) ([3]; Glucose (1 mM), WCDD301 3 µM): 16.564 and 14.55 and 11.5 | Insulin secretion (Supplemental Figure 4B; quantity not given) ([3]; Glucose (1 mM), WCDD301 3 µM): 18.692 and 16.896 and 14 | Insulin secretion (Supplemental Figure 4C; quantity not given) ([3]; Glucose (1 mM), WCDD301 3 µM): 12.61 and 13.59 and 9 | Insulin secretion (Supplemental Figure 4A; quantity not given) [3, 5]: 22.29 and 19.8308 and 21 | Insulin secretion (Supplemental Figure 4B; quantity not given) [3, 5]: 16.996 and 15.584 and 14.5 | Insulin secretion (Supplemental Figure 4A; quantity not given) [3, 6]: 29.994 and 17.548 and 22 | Insulin secretion (Supplemental Figure 4B; quantity not given) [3, 6]: 19.714 and 16.496 and 13 | Insulin secretion (Supplemental Figure 4A; quantity not given) ([3]; Glucose (11 mM), WCDD301 3 µM): 17.376 and 17.746 and 23 | Insulin secretion (Supplemental Figure 4B; quantity not given) ([3]; Glucose (11 mM), WCDD301 3 µM): 17.584 and 17.686 and 13 | Insulin secretion (Supplemental Figure 4C; quantity not given) ([3]; Glucose (11 mM), WCDD301 3 µM): 16.66 and 13.592 and 8.5
